# From article PMC5663395, “Chemical Validation of Methionyl-tRNA Synthetase as a Druggable Target in Leishmania donovani” (ACS Infectious Diseases, 2017)
# Read-outs that look alike come from different tables or passages of the source.
# Columns and labels:
# [1] = tested on: protein synthesis in human HeLa cell extract; test: HeLa in vitro translation (GFP expression in cell extract); assay type: biochemical; details: 100 μM
# Description: page 27: When test compounds were to be screened, the compound of interest (solubilised in 100% DMSO) was dispensed into assay plates using an Echo® 550 (Labcyte) before L. tarentolae extract and eGFP template DNA were added to assay wells as described above. The reaction was run at room temperature for 120 min before eGFP fluorescence intensity was measured. IC50 curve fitting was undertaken in GraFit version 6.0 (Erithacus Software) using a four-parameter logistic dose-response curve (equation 6), with s the slope. […] GFP expression was monitored over time using a BMG PheraStar plate reader (Excitation 485 nm; Emission 520 nm). When testing DDD806905 and the positive control compound cycloheximide, compounds (solubilised in 100% DMSO) were dispensed into assay plates using an Echo® 550 (Labcyte) before HeLa extract, accessory proteins, reaction mix and GFP template DNA were added to assay wells and GFP expression monitored as described above. Mitochondrial protein synthesis assay The effect of DDD806905 on mitochondrial protein synthesis was determined by BioDuro using the MitoBiogenesisTM In-Cell ELISA Kit (Abcam). […] In the assay the levels of SDH-A and COX-1 are measured in H9C2 cells. These are normalised to DMSO treated cells (vehicle) and then the ratio of normalised SDH-A over COX-1 is calculated. […]
# [2] = tested on: L. donovani intracellular amastigote; test: Leishmania intracellular amastigote assay; assay type: cell-based
# Description: carried out as described above using 5%, 10% and 20% FBS in the media. To examine the effect of the methionine concentration on the potency of DDD806905 parasites were grown in the presence of drug and in the presence (or absence) of 20-fold excess methionine (0.3 g/l). IC50 curve fitting was undertaken in GraFit version 6.0 (Erithacus Software) using a four-parameter logistic dose-response curve (equation 6), with s the slope.
# Leishmania Axenic Amastigote Assay
# The Leishmania axenic amastigote assay was performed using the method published in Nühs et al 15.
# Leishmania Intracellular Amastigote Assay
# The intramacrophage Leishmania assay was performed using a modified version of the method described in De Rycker et al 16. […]
# amphotericin B was included. Controls were as follows: columns 11 and 12: DMSO, columns 23 and 24: amphotericin B (final concentration 2 µM). 350 nl of compound was pre-dispensed into 384-well sterile intermediary plates. To the intermediary plates, 35 µl of THP-1 media was added and plates were shaken for >5 min to ensure complete mixing. THP-1 cells (8,000 per well, 50 µl) were plated into black clear-bottom 384-well plates (Corning) in presence of 20 nM phorbol 12-myristate 13- […]
# in a humidified incubator for 75 h. The cells were then washed with 450 µl sterile phosphate buffered saline (PBS) supplemented with 1 mM CaCl2, 0.5 mM MgCl2, 0.1% (w/v) bovine serum albumin (PBS-A) and amastigotes were added to all wells at a multiplicity of infection of 5 (40,000 amastigotes per well). After 40 min at room temperature, plates were returned to the incubator.
# Amastigotes were incubated in the presence of THP-1 macrophages for 16 h. Any remaining extracellular amastigotes were subsequently removed by washing with PBS-A followed by addition of 25 µl of the compound pre-dilutions using an Ipette-pro pipetting station (FluidX). The final dilution of each compound was 200-fold. […] For each well, i) THP-1 cell count (cytotoxicity readout) and ii) average number of amastigotes per cell (potency readout) were […]
# calculated, both in terms of pEC50 values. […]
structure (smiles),measurement,setting,value
"Cl.Cl.O=c1nc(NCCCNCc2cc3c(Cl)cc(Cl)cc3[nH]2)[nH]c2ccccc12 [DDD806905, 2-((3-(((4,6-dichloro-1H-indol-2-yl)methyl)amino)propyl)amino)quinazolin-4(1H)-one dihydrochloride]",inhibition of in vitro translation in HeLa cell extract,[1],no inhibition
same,EC50,"[2]; in THP-1 macrophages, read-out: intracellular amastigote EC50",2900 nM
same,MIC,"[2]; intracellular assay, lowest concentration with maximal inhibition, read-out: MIC (minimum inhibitory concentration)",4.3 µM
same,EC50,"[2]; representative curve, n=8 technical replicates, read-out: intracellular amastigote EC50, representative potency determination",2800 nM
